# Source: patent US20100058650A1, “HYDROXYMETHYLFURFURAL ETHERS FROM SUGARS OR HMF AND MIXED ALCOHOLS” (FURANIX TECHNOLOGIES B.V., priority 2007, published 2010)
# Experiment: Fuel solubility: miscibility of blends with commercial diesel
# Assay type: physicochemical
# Text: Fuel solubility is a primary concern for diesel fuel applications. Not all highly polar oxygenates have good solubility in the current commercial diesel fuels.
smiles,measurement,setting,value
"CCOCc1ccc(C=O)o1 [EMF, 5-(ethoxymethyl)furfural]",Miscibility of blend with commercial diesel,5 vol % blend with commercial diesel,completely miscible
same,Miscibility of blend with commercial diesel,25 vol % blend with commercial diesel,phase separation occurs
same,Miscibility of blend with commercial diesel,40 vol % blend with commercial diesel,phase separation occurs
